According to patent US11261209B2, “Enhanced coupling of stereodefined oxazaphospholidine phosphoramidite monomers to nucleoside or oligonucleotide” (Roche Innovation Center Copenhagen A/S, priority 2016, dated 2022):
“Also recorded” adds a separate entry of the source.

Assays:
[1] = Solubility of oxazaphospholidine phosphoramidite monomers in solvent, visual examination; assay type: physicochemical; conditions: for Soluble after: 0 h MeCN + 2.5% pyridine / Soluble after: 0 h MeCN / Soluble after: 24 h MeCN + 2.5% pyridine / Soluble after: 24 h MeCN: 0.013 mmol amidite in 0.13 mL, room temperature; for Solubility after 24 hours in MeCN with addition of pyridine: MeCN with addition of pyridine (2.5%)
Description: To a 1.5 mL vial was added 0.013 mmol of amidite after which the solid material was dissolved in 0.13 mL of solvent. Hereafter, the vial was capped, vortexed, and finally left at room temperature for 24 hours. Then, the dissolved material was visually examined regarding the solubility (FIG. 1). If the solution appeared cloudy or otherwise non-homogenous the solubility was set to “no”. If the solution appeared completely homogenous the solubility was set to “yes” (examination repeated after 24 hours).
Solubility of the following monomers was determined as per example 7.

[2] = Stability of amidite in solution by HPLC-MS (UV 254 nm, normalised to 0 hours); assay type: physicochemical
Description: Stability Determination Method: To complete the analysis the stability of the amidite was investigated using an Agilent 1100 series HPLC-MS with a gradient from 80% A (1% NH4OH in H2O) to 100% B (20% A in MeCN) and a Waters Xterra MS C18 2.1×100 mm column. The mass and UV peak of the mother compound was identified at 0 hours and at 24 hours. Hereafter, the relative stability compared to other by-products was reported by integrating the UV chromatogram (254 nm) and normalizing the area to the chromatogram recorded at 0 hours (FIG. 2).
To a 1.5 mL vial was added 0.013 mmol of amidite after which the solid material was dissolved in 0.13 mL of solvent (with and without Et3N, approximately 5-10 eq). Hereafter, the vial was capped, vortexed, and finally left at room temperature for 24 hours. To investigate the stability of the amidite an Agilent 1100 series HPLC-MS with a gradient from 80% A (1% NH4OH in H2O) to 100% B (20% A in MeCN) and a Waters Xterra MS C18 2.1×100 mm column was used. The mass and UV peak of the mother compound was identified at 0 hours and at 24 hours. Hereafter, the relative stability compared to other by-products was reported. This was again repeated after 48 hours.

| Structure (SMILES) | Soluble after: 0 h MeCN + 2.5% pyridine [1] | Soluble after: 0 h MeCN ([1]; MeCN) | Soluble after: 24 h MeCN + 2.5% pyridine [1] | Soluble after: 24 h MeCN ([1]; MeCN) | also measured |
| --- | --- | --- | --- | --- | --- |
| COc1ccc(C(OC[C@H]2O[C@@H](n3ccc(NC(C)=O)nc3=O)C[C@@H]2O[P@@]2O[C@H](c3ccccc3)[C@@H]3CCCN32)(c2ccccc2)c2ccc(OC)cc2)cc1 [L-DNA C] | Yes | Yes | Yes | No |  |
| COc1ccc(C(OCC23COC(C(n4cnc5c(NC(=O)c6ccccc6)ncnc54)O2)C3OP2OC(c3ccccc3)C3CCCN32)(c2ccccc2)c2ccc(OC)cc2)cc1 [L-LNA A] |  |  |  |  | Stability in MeCN with Et3N after 24 hours ([2]; MeCN + Et3N approximately 5-10 eq, 24 hours): completely stable; Stability in MeCN with Et3N after 48 hours ([2]; MeCN + Et3N approximately 5-10 eq, 48 hours): majority of the L-LNA A is preserved; Stability in MeCN after 24 hours ([2]; MeCN only, 24 hours, room temperature): most of the L-LNA A was degraded; Stability in MeCN after 48 hours ([2]; MeCN only, 48 hours, room temperature): completely degraded |
| COc1ccc(C(OC[C@H]2O[C@@H](n3cnc4c(NC(=O)c5ccccc5)ncnc43)C[C@@H]2O[P@@]2O[C@H](c3ccccc3)[C@@H]3CCCN32)(c2ccccc2)c2ccc(OC)cc2)cc1 [L-DNA A] | Yes | Yes | Yes | No | Solubility after 24 hours in MeCN with addition of pyridine [1]: solubility of the monomer is preserved; also recorded: kept in solution; Solubility after 24 hours in MeCN ([1]; MeCN): not soluble; also recorded: not sufficient to keep the monomer in solution |
| COc1ccc(C(OCC23COC(C(n4cnc5c(=O)[nH]c(N=CN(C)C)nc54)O2)C3OP2OC(c3ccccc3)C3CCCN32)(c2ccccc2)c2ccc(OC)cc2)cc1 [D-LNA G] | Yes | Yes | Yes | Yes |  |
| COc1ccc(C(OC[C@H]2O[C@@H](n3cnc4c(=O)[nH]c(/N=C/N(C)C)nc43)C[C@@H]2O[P@]2O[C@@H](c3ccccc3)[C@H]3CCCN32)(c2ccccc2)c2ccc(OC)cc2)cc1 [D-DNA G] | Yes | Yes | Yes | No |  |
| COc1ccc(C(OC[C@H]2O[C@@H](n3ccc(NC(C)=O)nc3=O)C[C@@H]2O[P@]2O[C@@H](c3ccccc3)[C@H]3CCCN32)(c2ccccc2)c2ccc(OC)cc2)cc1 [D-DNA C] | Yes | Yes | Yes | No |  |
| COc1ccc(C(OCC23COC(C(n4cnc5c(NC(=O)c6ccccc6)ncnc54)O2)C3OP2OC(c3ccccc3)C3CCCN32)(c2ccccc2)c2ccc(OC)cc2)cc1 [D-LNA A] | Yes | Yes | Yes | No | Solubility after 24 hours in MeCN with addition of pyridine [1]: solubility of the monomer is preserved; Solubility after 24 hours in MeCN ([1]; MeCN): not soluble |
| COc1ccc(C(OC[C@H]2O[C@@H](n3cnc4c(NC(=O)c5ccccc5)ncnc43)C[C@@H]2O[P@]2O[C@@H](c3ccccc3)[C@H]3CCCN32)(c2ccccc2)c2ccc(OC)cc2)cc1 [D-DNA A] | Yes | Yes | Yes | No | Solubility after 24 hours in MeCN with addition of pyridine [1]: solubility of the monomer is preserved; Solubility after 24 hours in MeCN ([1]; MeCN): not soluble |
| COc1ccc(C(OC[C@H]2O[C@@H](n3cc(C)c(=O)[nH]c3=O)C[C@@H]2O[P@@]2O[C@H](c3ccccc3)[C@@H]3CCCN32)(c2ccccc2)c2ccc(OC)cc2)cc1 [L-DNA T] | Yes | Yes | Yes | No |  |
| COc1ccc(C(OCC23COC(C(n4cnc5c(=O)[nH]c(N=CN(C)C)nc54)O2)C3OP2OC(c3ccccc3)C3CCCN32)(c2ccccc2)c2ccc(OC)cc2)cc1 [L-LNA G-DMF] | No | No | No | No | Amidite left after 24 hours ([2]; DCM (best solvent), 24 hours, room temperature): 10%; Stability in the solvents where the monomer is soluble ([2]; MeCN:DCM, DMF, DMSO, NMP, DCM, DCE, and Toluene, 24 hours): tremendous instability; Solubility in most solvents ([1]; MeCN, MeCN:DCE, MeCN:Tol, MeCN:acetone, Dioxane, and THF): unsoluble; Solubility in remaining solvents ([1]; MeCN:DCM, DMF, DMSO, NMP, DCM, DCE, and Toluene): soluble; Solubility in acetonitrile solvents ([1]; acetonitrile solvents): poorly soluble |
| COc1ccc(C(OC[C@H]2O[C@@H](n3cnc4c(=O)[nH]c(/N=C/N(C)C)nc43)C[C@@H]2O[P@@]2O[C@H](c3ccccc3)[C@@H]3CCCN32)(c2ccccc2)c2ccc(OC)cc2)cc1 [L-DNA G] | Yes | Yes | Yes | No |  |
| COc1ccc(C(OCC23COC(C(n4cc(C)c(=O)[nH]c4=O)O2)C3OP2OC(c3ccccc3)C3CCCN32)(c2ccccc2)c2ccc(OC)cc2)cc1 [D-LNA T] | Yes | Yes | Yes | Yes |  |
| COc1ccc(C(OC[C@@]23CO[C@@H]([C@H](n4cnc5c(=O)[nH]c(NC(=O)C(C)C)nc54)O2)[C@@H]3O[P@]2O[C@H](c3ccccc3)[C@@H]3CCCN32)(c2ccccc2)c2ccc(OC)cc2)cc1 [L-LNA-G-iBu] | Yes | Yes | Yes |  | Solubility in all solvents investigated ([1]; all solvents investigated (12 different)): soluble |
| COc1ccc(C(OC[C@H]2O[C@@H](n3cc(C)c(=O)[nH]c3=O)C[C@@H]2O[P@]2O[C@@H](c3ccccc3)[C@H]3CCCN32)(c2ccccc2)c2ccc(OC)cc2)cc1 [D-DNA T] | Yes | Yes | Yes | No |  |
